Laboratory results reported in US20230128252A1, “PHARMACEUTICAL COMPOSITIONS” (Shenzhen Pharmacin Co., Ltd., priority 2020, published 2023).

Experiments:
[1] = Solubility of clofazimine in aqueous media; format: physicochemical; conditions: aqueous medium, aqueous with cosolvent or surfactant or cyclodextrin, thermodynamic from solid; pH 4.5 + 0.25% SDS, 25° C.
Procedure: Clofazimine was added to various aqueous media, at various pH values (2-5 mL) in a 10 mL glass vial, at 25° C., with stirring. […] This cycle was repeated until no further dissolution was observable. The suspension was then centrifuged and the supernatant filtered by microfiltration.

[2] = Skin permeability of clofazimine preparations (vertical Franz diffusion cells); format: in vitro ADME, NU/NU nude mice

For CC(C)/N=c1\cc2n(-c3ccc(Cl)cc3)c3ccccc3nc-2cc1Nc1ccc(Cl)cc1 [Clofazimine, N,5-bis(4-chlorophenyl)-3-propan-2-ylimino phenazin-2-amine], the solubility at 24 h [1] was 710 µg/mL, the “clofazimine content (Table 12, FIG. 3)” value ([2]; Gel, PEG 400 10 wt %) was 1.6000 μg/cm^2 and the “clofazimine content (Table 12, FIG. 3)” value ([2]; Gel, Transcutol) was 0.1894 μg/cm^2. The “clofazimine content (Table 12, FIG. 3)” value ([2]; Gel, Tween 80 10 wt %) was 0.9800 μg/cm^2, the “clofazimine content (Table 12, FIG. 3)” value ([2]; Gel, labrasol 10 wt %) was 0.8200 μg/cm^2 and the “clofazimine content (Table 12, FIG. 3)” value ([2]; Solvents (solution), PEG 400 99.9 wt %) was 0.2700 μg/cm^2. For the same compound, the “clofazimine content (Table 12, FIG. 3)” value ([2]; Solvents (solution), Transcutol) was 0.0596 μg/cm^2, the “clofazimine content (Table 12, FIG. 3)” value ([2]; Solvents (solution), Tween 80 99.9 wt %) was 0.2500 μg/cm^2 and the “clofazimine content (Table 12, FIG. 3)” value ([2]; Solvents (solution), labrasol 99.9 wt %) was 0.2600 μg/cm^2. It also gave a clofazimine content ([2]; gel: Carbomer 940 0.5, Transcutol 20, Lecithin 5 wt %, pH 7.0, clofazimine amount 0.01%) of 0.0568 ug/cm^2, a clofazimine content ([2]; gel: Carbomer 940 0.5, Transcutol 20, Lecithin 5 wt %, pH 7.0, clofazimine amount 0.02%) of 0.1971 ug/cm^2 and a clofazimine content ([2]; gel: Carbomer 940 0.5, Transcutol 20, Lecithin 5 wt %, pH 7.0, clofazimine amount 0.05%) of 0.5394 ug/cm^2. The clofazimine content ([2]; gel: Carbomer 940 0.5, Transcutol 20, Lecithin 5 wt %, pH 7.0, clofazimine amount 0.1%) was 0.8014 ug/cm^2, the clofazimine content ([2]; gel: Carbomer 940 0.5, Transcutol 20, Lecithin 5 wt %, pH 7.0, clofazimine amount 0.2%) was 0.7102 ug/cm^2 and the clofazimine content ([2]; gel: Carbomer 940 0.5, Transcutol 20, Lecithin 5 wt %, pH 7.0, clofazimine amount 0.5%) was 0.7512 ug/cm^2. For the same compound, the clofazimine content ([2]; gel: clofazimine 0.1, Carbomer 940 0.5, Transcutol 20, Lecithin 5 wt %, pH 6.0) was 0.4246 ug/cm^2, the clofazimine content ([2]; gel: clofazimine 0.1, Carbomer 940 0.5, Transcutol 20, Lecithin 5 wt %, pH 7.0) was 0.4146 ug/cm^2 and the clofazimine content ([2]; gel: clofazimine 0.1, Carbomer 940 0.5, Transcutol 20, Lecithin 5 wt %, pH 8.0) was 0.3463 ug/cm^2. The clofazimine content ([2]; gel: clofazimine 0.1, Carbomer 940 0.5, Transcutol 20, Lecithin 5 wt %, pH 9.0) was 0.2970 ug/cm^2, the clofazimine content ([2]; gel: clofazimine 0.1, Carbomer 940 0.5, Transcutol 20, Lecithin 5 wt %, pH 9.5) was 0.2463 ug/cm^2 and the clofazimine content ([2]; gel: clofazimine 0.1, Carbomer 940 0.5, Transcutol 20 wt %, pH 7.0, Control (water instead of penetration enhancer)) was 0.1331 ug/cm^2. For the same compound, the clofazimine content ([2]; gel: clofazimine 0.1, Carbomer 940 0.5, Transcutol 20 wt %, pH 7.0, lecithin 2%) was 0.2272 ug/cm^2, the clofazimine content ([2]; gel: clofazimine 0.1, Carbomer 940 0.5, Transcutol 20 wt %, pH 7.0, lecithin 3%) was 0.2745 ug/cm^2 and the clofazimine content ([2]; gel: clofazimine 0.1, Carbomer 940 0.5, Transcutol 20 wt %, pH 7.0, lecithin 4%) was 0.3026 ug/cm^2. It also gave a clofazimine content ([2]; gel: clofazimine 0.1, Carbomer 940 0.5, Transcutol 20 wt %, pH 7.0, lecithin 5%) of 0.3578 ug/cm^2, a clofazimine content ([2]; gel: clofazimine 0.1, Carbomer 940 0.5, Transcutol 20 wt %, pH 7.0, lecithin 6%) of 0.3335 ug/cm^2 and a clofazimine content ([2]; gel: clofazimine 0.1, Carbomer 940 0.5, Transcutol 20 wt %, pH 7.0, lecithin 10%) of 0.3968 ug/cm^2. It also gave a clofazimine content ([2]; gel: clofazimine 0.1, Carbomer 940 0.5, Transcutol 20 wt %, pH 7.0, lecithin 19%) of 0.2989 ug/cm^2, a clofazimine content ([2]; gel: clofazimine 0.1, Carbomer 940 0.5, Transcutol 20 wt %, pH 7.0, penetration enhancer 4 wt %: DMSO) of 0.1806 ug/cm^2 and a clofazimine content ([2]; gel: clofazimine 0.1, Carbomer 940 0.5, Transcutol 20 wt %, pH 7.0, penetration enhancer 4 wt %: Ethanol) of 0.2055 ug/cm^2. For the same compound, the clofazimine content ([2]; gel: clofazimine 0.1, Carbomer 940 0.5, Transcutol 20 wt %, pH 7.0, penetration enhancer 4 wt %: Lecithin) was 0.9881 ug/cm^2, the clofazimine content ([2]; gel: clofazimine 0.1, Carbomer 940 0.5, Transcutol 20 wt %, pH 7.0, penetration enhancer 4 wt %: Octanol) was 0.6230 ug/cm^2 and the clofazimine content ([2]; gel: clofazimine 0.1, Carbomer 940 0.5, Transcutol 20 wt %, pH 7.0, penetration enhancer 4 wt %: Oleic acid) was 0.2344 ug/cm^2. It also gave a clofazimine content ([2]; gel: clofazimine 0.1, Carbomer 940 0.5, Transcutol 20 wt %, pH 7.0, penetration enhancer 4 wt %: SDS (0.05%)) of 0.1829 ug/cm^2, a clofazimine content ([2]; gel: clofazimine 0.1, Carbomer 940 0.5, Transcutol 20 wt %, pH 7.0, penetration enhancer 4 wt %: Tween 20) of 0.1535 ug/cm^2 and a clofazimine content ([2]; gel: clofazimine 0.1, Carbomer 940 0.5, Transcutol 20 wt %, pH 7.0, penetration enhancer 4 wt %: Tween 80) of 0.2484 ug/cm^2. For the same compound, the clofazimine content ([2]; gel: clofazimine 0.1, Carbomer 940 0.5 wt %, pH 7.0, solvent 10 wt % PEG 400, 4 hours) was 1.6000 ug/cm^2, the clofazimine content ([2]; gel: clofazimine 0.1, Carbomer 940 0.5 wt %, pH 7.0, solvent 10 wt % Transuctol, 4 hours) was 0.1894 ug/cm^2 and the clofazimine content ([2]; gel: clofazimine 0.1, Carbomer 940 0.5 wt %, pH 7.0, solvent 10 wt % Tween 80, 4 hours) was 0.9800 ug/cm^2. For the same compound, the clofazimine content ([2]; gel: clofazimine 0.1, Carbomer 940 0.5 wt %, pH 7.0, solvent 10 wt % labrasol, 4 hours) was 0.8200 ug/cm^2, the clofazimine content ([2]; gel: clofazimine 0.1, Transcutol 20, Lecithin 5 wt %, pH 7.0, Carbomer 940 amount 0.5%) was 0.4871 ug/cm^2 and the clofazimine content ([2]; gel: clofazimine 0.1, Transcutol 20, Lecithin 5 wt %, pH 7.0, Carbomer 940 amount 0.8%) was 0.3054 ug/cm^2. The clofazimine content ([2]; gel: clofazimine 0.1, Transcutol 20, Lecithin 5 wt %, pH 7.0, Carbomer 940 amount 1.0%) was 0.3205 ug/cm^2, the clofazimine content ([2]; inner skin, 4 hours, solution, clofazimine 100 mg in 99.9 g Ethanol) was 0.5565 ug/cm^2 and the clofazimine content ([2]; inner skin, 4 hours, solution, clofazimine 100 mg in 99.9 g KHS-15) was 0.0660 ug/cm^2. It also gave a clofazimine content ([2]; inner skin, 4 hours, solution, clofazimine 100 mg in 99.9 g Laurocapram) of 0.3593 ug/cm^2.
